The values that follow come from EP0498830B1, “GLUTAMIC AND ASPARTIC ACID DERIVATIVES WITH ANTIGASTRIN ACTIVITY AND A METHOD FOR THEIR PREPARATION” (ROTTA RESEARCH LABORATORIUM S.P.A., priority 1989, dated 1991).

For one test, the system named is fundic mucosa. The experiment in a line: Pentagastrin-induced hyperplasia of the fundic mucosa in tumour-bearing mice. It is filed as in vivo. The following applies: pentagastrin alone, 250 mcg/ml twice a day, 20 days. The source says: (§1) Male mice weighing 20-25g were inoculated subcutaneously in the interscapular region with a suspension of 8 x 10⁴ tumour cells of a mouse colic adenocarcinoma. […] After 20 days, the animals were killed and the fundic mucosa and the tumours were removed, weighed and extracted in order to determine their DNA content.

Test [1] addresses T1, gastrin receptor sites on the parietal cell membranes of the fundic mucosa of a guinea-pig stomach (Cavia porcellus, UniProt H0VZC5).
T1 sequence (H0VZC5 1-426): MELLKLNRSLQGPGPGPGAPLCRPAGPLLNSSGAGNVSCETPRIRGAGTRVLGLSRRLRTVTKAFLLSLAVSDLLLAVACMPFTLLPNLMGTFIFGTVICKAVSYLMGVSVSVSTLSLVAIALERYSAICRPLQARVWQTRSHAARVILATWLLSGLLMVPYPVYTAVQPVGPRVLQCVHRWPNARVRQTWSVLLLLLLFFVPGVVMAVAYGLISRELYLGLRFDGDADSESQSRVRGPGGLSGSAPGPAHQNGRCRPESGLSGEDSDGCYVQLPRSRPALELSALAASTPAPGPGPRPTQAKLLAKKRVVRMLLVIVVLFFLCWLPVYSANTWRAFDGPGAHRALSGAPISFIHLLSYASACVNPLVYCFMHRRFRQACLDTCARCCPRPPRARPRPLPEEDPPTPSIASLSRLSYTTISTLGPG
The experiment in a line: Inhibition of binding of tritiated pentagastrin to isolated guinea-pig gastric glands. The arrangement: from tissue; host or cells: isolated guinea-pig gastric (fundic) glands. To be noted: displacement of 50% of pentagastrin tritiate; 30 minutes at 25°C. On the procedure: The capacity of some of the compounds which are the subject of the invention to inhibit the binding of pentagastrin-[beta-alanyl-3-3H(N)] to the gastrin receptor sites on the parietal cell membranes of the fundic mucosa of a guinea-pig stomach was evaluated by comparison with the displacement of pentagastrin induced by proglumide, which is a reference antigastrin compound, by lorglumide, which is a powerful CCK antagonist mentioned above, and by the compound D5 which is the optical antipode (the L-series enantiomer) of the compound D1.
Male guinea pigs weighing about 400-500g were used. After the guinea pig had been killed, its stomach was removed and placed in oxygenated SPB buffer at 37°C (SPB = saline phosphate buffer: 149.6 mM NaCl, 3 mM K₂HPO₄, 0.64 mM NaH₂PO₄, pH 7.3).
After washing in the buffer, the stomach was placed on a petri dish and the antral part discarded.
The mucosa of the remaining part was removed from the underlying muscular part and was then chopped and transferred to a flask containing a collagenase digestion solution, 0.1% BSA and 0.2% glucose. […]
After the supernatant liquid had been removed by centrifuging, the radioactivity associated with the pellet was determined with a liquid scintillator. The specific binding was determined as the difference between the binding in the absence and in the presence of 10⁻⁶ M pentagastrin. […]

For test [2], the target named is T2, central gastrin receptors (Mus musculus, UniProt P56481).
T2 sequence (P56481 1-453): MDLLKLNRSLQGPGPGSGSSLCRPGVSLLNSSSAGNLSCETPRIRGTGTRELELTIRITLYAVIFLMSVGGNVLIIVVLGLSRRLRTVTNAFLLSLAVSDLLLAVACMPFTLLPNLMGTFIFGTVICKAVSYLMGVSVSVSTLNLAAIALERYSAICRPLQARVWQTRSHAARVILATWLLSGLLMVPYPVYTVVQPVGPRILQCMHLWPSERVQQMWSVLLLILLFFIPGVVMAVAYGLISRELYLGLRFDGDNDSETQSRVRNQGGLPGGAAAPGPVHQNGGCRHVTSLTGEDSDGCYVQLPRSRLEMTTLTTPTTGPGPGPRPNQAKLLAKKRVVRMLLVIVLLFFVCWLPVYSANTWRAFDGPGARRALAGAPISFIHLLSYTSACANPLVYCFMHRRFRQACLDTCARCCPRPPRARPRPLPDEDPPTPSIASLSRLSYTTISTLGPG
The experiment in a line: Inhibition of binding of tritiated pentagastrin to mouse cerebral cortex membranes. To be noted: displacement of pentagastrin tritiate; 40 minutes at 37°C. The arrangement: Cerebral cortex membranes were therefore used and pentagastrin tritiate was again used as the ligand; from tissue; host or cells: mouse cerebral cortex membranes; species or system mice. As to the method:
Cerebral cortex membranes were therefore used and pentagastrin tritiate was again used as the ligand.
Mouse cortex tissue was homogenised cold in 20 volumes of tris buffer (pH 7.7). After washing and centrifuging, the final pellet was resuspended in 20 volumes of binding buffer containing, inter alia, TRIS, BSA and bacitracin. 0.4 ml of the membrane thus obtained were then incubated with a radioactive tracer and with the compounds under test for 40 minutes at 37°C.
After the supernatant liquid had been removed by centrifuging, the radioactivity associated with the pellet was determined, again with a liquid scintillator. The specific binding is the difference between the binding in the absence and in the presence of 10⁻⁶M pentagastrin.
Again, this gives the IC50s of the compounds tested with the meaning as given above.

For test [3], the system named is mouse colic adenocarcinoma. In words: Pentagastrin-induced growth of transplanted colic tumour in mice. The test is classed as in vivo. The following applies: pentagastrin alone, 250 mcg/ml twice a day, 20 days.
From the text: as §1

With `CSCC[C@H](NC(=O)[C@H](Cc1c[nH]c2ccccc12)NC(=O)CCNC(=O)OC(C)(C)C)C(=O)N[C@@H](CC(=O)O)C(=O)N[C@@H](Cc1ccccc1)C(N)=O` [Pentagastrin], in the test with fundic mucosa, the “FUNDIC DNA” value amounted to 0.44 ± 0.03 mg and the “WEIGHT OF THE FUNDIC MUCOSA” value came to 36.0 ± 4.2 mg. In test [1], the IC50 (as a rule, the concentration at which inhibition is half-maximal) came to 0.41 nM. The IC50 in test [2] was 0.78 nM. For the same compound, in test [3], the “TUMOROUS DNA” value stood at 4.48 ± 0.29 mg and the “WEIGHT OF THE COLIC TUMOUR” value amounted to 779.7 ± 27 mg.
